Tests used:
ileum = experiment: Magnus test: carbachol-induced contraction of isolated rat ileum; conditions: test compound 10 μM, then carbachol 50 nM, 100% = carbachol 1000 nM, 0% = DMSO + carbachol 50 nM, average ± standard error, read-out: Enhancement ratio P of the contraction force
Experimental: 9- to 15-week-aged SD female rats (Japan SLC, Inc.) were exsanguinated to death by amputation of carotid artery under isoflurane anesthesia. Then, the ileum was removed from each rat, and cut to a length of 2 cm while excising the mesentery and connective tissue, to prepare an intestinal sample. In a Magnus tank, this sample was immersed and suspended in 20 mL of a Krebs solution at 37° C. (118 mM NaCl, 4.7 mM KCl, 2.5 mM CaCl2, 1.2 mM MgSO4, 1.2 mM KH2PO4, 11 mM D-glucose, 20 mM NaHCO3) aerated with a mixed gas of 95% O2 and 5% CO2. Then, a load of 1 g was applied to the sample to stabilize the tension.
One end of the sample was connected to an isotonic transducer (IT-10, Medical Agent), and tension (contraction force) data was imported to a personal computer via Power Lab (registered trademark) (A&D Instruments Limited). Carbachol (Carbamylcholine Chloride, Cat. No. 036-09841, manufactured by FUJIFILM Wako Pure Chemical Industries, Ltd.) was added to the Krebs solution in the Magnus tank such that the final concentration thereof was 1000 nM, and contraction of the sample was checked. A contraction force Tb of the sample at this time was defined as 100%. Then, the Magnus tank was washed with a Krebs solution three times to wash away carbachol, and the Magnus tank was finally filled with 20 mL of a Krebs solution.
Next, dimethyl sulfoxide (DMSO, Cat. No. 13445-74, manufactured by NACALAI TESQUE, INC.) was added to the Krebs solution in the Magnus tank, then carbachol was added to the Krebs solution in the Magnus tank such that the final concentration thereof was 50 nM, and contraction of the sample was checked. A contraction force Ta of the sample at this time was defined as 0%. Then, the Magnus tank was washed with a Krebs solution three times to wash away carbachol and DMSO, and the Magnus tank was finally filled with 20 mL of a Krebs solution. Next, a test compound dissolved in DMSO was added to the Krebs solution in the Magnus tank such that the final concentration thereof was 10 μM, then carbachol was added to the Krebs solution in the Magnus tank such that the final concentration thereof was 50 nM, and contraction of the sample was checked.
As described above, the contraction force Tb of the sample when carbachol was added at a final concentration of 1000 nM was defined as 100%, and the contraction force Ta of the sample when carbachol was added at a final concentration of 50 nM under the condition that DMSO was added first instead of the test compound was defined as 0%. The contraction force of the sample when carbachol was added at a final concentration of 50 nM under the condition that the test compound was added first at a final concentration of 10 μM was denoted by Tc, and an enhancement ratio P (unit: %) of the contraction force by the test compound was calculated according to the following equation (2). The increase in contraction force by the test compound was evaluated on the basis of the enhancement ratio P. The number of cases in each addition group was 3 to 7.
P=100×(Tc−Ta)/(Tb−Ta) (2)

anesthetized mice = experiment: Measurement of secreted saliva amount in anesthetized mice; format: in vivo, mouse; conditions: urethane-anesthetized male ICR mice; 10 mg/kg intravenous; cotton balls weighed after 30 minutes; average ± standard error
Experimental: 8-week-aged male ICR mice (Japan SLC, Inc.) were anesthetized with urethane (1650 mg/kg, intraperitoneal administration). After about 1 hour, a test compound or a vehicle (physiological saline containing 10% DMSO (OTSUKA NORMAL SALINE, manufactured by Otsuka Pharmaceutical Factory, Inc.)) was intravenously administered at 10 mg/kg, and immediately after that, one or two absorbent cotton wool balls ([…]) (Roller Cotton (cotton ball) SS, manufactured by Nichiei Co., Ltd.) were inserted into the mouth. The difference between the weight of the absorbent cotton balls after 30 minutes from insertion and the weight of the absorbent cotton balls before insertion was defined as an amount of saliva secreted. At this time, the test compound was dissolved in DMSO and then diluted 10-fold with physiological saline. The administration volumes of the test compound and the vehicle were each set to 5 mL/kg. The experiment was carried out in three parts. The number of cases in each administration group was 3-4.

**Q.** With `COCC1(CN(C)c2cc(-c3cnc(C4CC4)c(C(F)(F)F)c3)nc3nc(-c4ccc(OC5CCN(CC(=O)O)CC5)cc4F)[nH]c23)CCCC1` [Example 11, [4-(4-{5-[6-Cyclopropyl-5-(trifluoromethyl)pyridin-3-yl]-7-[{[1-(methoxymethyl)cyclopentyl]methyl}(methyl)amino]-1H-imidazo[4,5-b]pyridin-2-yl}-3-fluorophenoxy)piperidin-1-yl]acetic acid] as the compound, how does the activation at 10 µM (ileum) read?
**A.** 30.1 ± 3.79%

**Q.** What about the “Amount of saliva secreted” value (anesthetized mice) of the same compound?
**A.** 51.85 ± 7.37 mg
